Experiment: xn = mol fraction of the nth substance listed
Conditions: 100 kPa

CC[N+](C)(CC)CCOC.F[B-](F)(F)F + CCCC[n+]1ccn(C)c1C.F[B-](F)(F)F
electrical conductivity [S/m]
Conditions | x1 = 0.1 | x1 = 0.2 | x1 = 0.3 | x1 = 0.4 | x1 = 0.5 | x1 = 0.6 | x1 = 0.7 | x1 = 0.8 | x1 = 0.9 | x1 = 1
313.15 K | 0.231 | 0.244 | 0.282 | – | 0.29 | 0.296 | – | 0.321 | 0.348 | 0.343
318.15 K | 0.305 | – | 0.354 | – | – | 0.38 | 0.392 | – | 0.445 | –
323.15 K | 0.392 | 0.404 | 0.437 | 0.445 | 0.465 | 0.472 | 0.498 | 0.519 | – | 0.553
328.15 K | – | – | 0.534 | 0.541 | – | 0.579 | 0.614 | 0.639 | – | 0.68
333.15 K | 0.604 | 0.613 | 0.643 | 0.67 | – | 0.72 | 0.766 | 0.782 | 0.822 | 0.829
338.15 K | 0.727 | 0.736 | 0.758 | – | 0.79 | 0.828 | 0.884 | 0.939 | 0.995 | 1
343.15 K | 0.861 | 0.871 | 0.9 | – | 0.936 | 0.978 | 1.03 | 1.09 | – | 1.18
348.15 K | 1.02 | 1.03 | 1.05 | 1.07 | 1.09 | – | 1.2 | 1.27 | 1.37 | 1.39
353.15 K | 1.16 | – | – | – | – | 1.32 | – | 1.42 | 1.59 | –
358.15 K | 1.31 | 1.35 | – | – | 1.46 | 1.51 | 1.56 | – | 1.82 | 1.86
363.15 K | 1.5 | 1.53 | 1.58 | 1.62 | – | 1.73 | 1.77 | 1.82 | 2.01 | –

CCCCn1cc[n+](C)c1C.O=S(=O)([N-]S(=O)(=O)C(F)(F)F)C(F)(F)F + CCCC[n+]1ccn(C)c1C.F[B-](F)(F)F
electrical conductivity [S/m]
Conditions | x1 = 0.1 | x1 = 0.2 | x1 = 0.3 | x1 = 0.4 | x1 = 0.5 | x1 = 0.6 | x1 = 0.7 | x1 = 0.8 | x1 = 0.9 | x1 = 1
313.15 K | 0.231 | 0.249 | 0.265 | 0.305 | – | 0.32 | 0.35 | 0.403 | 0.476 | 0.465
318.15 K | 0.301 | 0.32 | – | 0.378 | – | 0.394 | 0.432 | – | 0.572 | 0.566
323.15 K | 0.381 | – | – | – | 0.476 | 0.482 | 0.521 | 0.59 | 0.683 | 0.665
328.15 K | 0.474 | 0.49 | 0.508 | 0.54 | 0.572 | 0.581 | 0.617 | 0.698 | 0.812 | 0.777
333.15 K | 0.587 | 0.6 | 0.617 | 0.645 | 0.68 | – | 0.709 | 0.816 | 0.94 | 0.901
338.15 K | 0.707 | 0.715 | – | – | 0.796 | – | 0.839 | 0.949 | 1.08 | 1.04
343.15 K | 0.844 | 0.848 | 0.859 | 0.894 | 0.931 | 0.952 | 0.963 | 1.08 | 1.23 | 1.18
348.15 K | 0.997 | 0.995 | 1.01 | – | 1.07 | 1.08 | 1.09 | – | – | 1.37
353.15 K | 1.16 | 1.15 | 1.16 | 1.18 | 1.23 | 1.23 | 1.24 | – | 1.56 | 1.54
358.15 K | – | 1.31 | 1.32 | 1.34 | – | 1.4 | – | – | 1.74 | –
363.15 K | 1.5 | – | 1.5 | 1.51 | – | 1.57 | 1.59 | 1.64 | 1.91 | 1.87

CCCC[n+]1ccn(C)c1C.F[B-](F)(F)F + CC[N+](C)(CC)CCOC.F[B-](F)(F)F
x2 = 0
Conditions | electrical conductivity [S/m]
318.15 K | 0.153
323.15 K | 0.202
328.15 K | 0.26
353.15 K | 0.749
358.15 K | 0.867
363.15 K | 0.995

CC[N+](C)(CC)CCOC.O=S(=O)([N-]S(=O)(=O)C(F)(F)F)C(F)(F)F + CC[N+](C)(CC)CCOC.F[B-](F)(F)F
x1 = 1
Conditions | electrical conductivity [S/m]
293.15 K | 0.237
303.15 K | 0.382
308.15 K | 0.476
313.15 K | 0.572
318.15 K | 0.683
323.15 K | 0.794
328.15 K | 0.922
333.15 K | 1.06
338.15 K | 1.2
343.15 K | 1.32

CC[N+](C)(CC)CCOC.F[B-](F)(F)F + CC[N+](C)(CC)CCOC.O=S(=O)([N-]S(=O)(=O)C(F)(F)F)C(F)(F)F
electrical conductivity [S/m]
Conditions | x2 = 0 | x2 = 0.1 | x2 = 0.2 | x2 = 0.3 | x2 = 0.4 | x2 = 0.5 | x2 = 0.6 | x2 = 0.7 | x2 = 0.8 | x2 = 0.9
293.15 K | 0.096 | – | 0.133 | 0.14 | 0.149 | 0.161 | 0.175 | 0.168 | 0.184 | 0.198
298.15 K | 0.136 | 0.161 | 0.174 | – | 0.202 | 0.214 | 0.234 | – | 0.251 | –
303.15 K | 0.19 | 0.218 | 0.233 | 0.25 | 0.264 | 0.277 | 0.304 | 0.298 | 0.324 | –
308.15 K | 0.255 | 0.292 | 0.305 | – | 0.338 | – | – | 0.381 | 0.407 | 0.423
313.15 K | 0.343 | 0.381 | – | – | 0.425 | 0.444 | 0.47 | 0.472 | – | 0.509
318.15 K | 0.437 | 0.483 | 0.485 | 0.506 | – | 0.541 | 0.569 | – | 0.599 | 0.625
323.15 K | 0.553 | 0.596 | – | – | 0.636 | 0.652 | 0.684 | 0.687 | 0.709 | 0.731
328.15 K | 0.68 | 0.737 | – | 0.734 | 0.763 | 0.779 | – | 0.804 | 0.833 | 0.863
333.15 K | 0.829 | – | 0.858 | 0.873 | 0.897 | – | 0.934 | – | 0.964 | 0.993
338.15 K | 1 | 1.06 | 1.02 | 1.02 | 1.04 | 1.06 | 1.08 | – | 1.11 | 1.13
343.15 K | 1.18 | 1.24 | – | – | 1.2 | 1.22 | 1.24 | 1.23 | – | 1.29

CCCCn1cc[n+](C)c1C.O=S(=O)([N-]S(=O)(=O)C(F)(F)F)C(F)(F)F + CC[N+](C)(CC)CCOC.O=S(=O)([N-]S(=O)(=O)C(F)(F)F)C(F)(F)F
electrical conductivity [S/m]
Conditions | x2 = 0 | x2 = 0.1 | x2 = 0.2 | x2 = 0.3 | x2 = 0.4 | x2 = 0.5 | x2 = 0.6 | x2 = 0.7 | x2 = 0.8 | x2 = 0.9
293.15 K | – | 0.191 | – | 0.195 | 0.201 | – | 0.206 | 0.211 | 0.21 | 0.21
298.15 K | – | 0.253 | – | 0.259 | 0.263 | 0.264 | 0.268 | 0.275 | 0.28 | 0.28
303.15 K | 0.302 | 0.323 | 0.326 | 0.325 | 0.336 | 0.337 | 0.345 | 0.355 | 0.351 | 0.351
308.15 K | – | 0.402 | 0.403 | 0.407 | 0.414 | 0.423 | 0.426 | 0.432 | 0.434 | 0.434
313.15 K | 0.465 | 0.498 | 0.497 | 0.499 | 0.509 | – | 0.515 | – | 0.56 | 0.56
318.15 K | 0.566 | 0.589 | – | 0.601 | 0.611 | 0.616 | 0.62 | 0.638 | – | 0.648
323.15 K | – | 0.705 | 0.71 | 0.722 | 0.726 | 0.735 | 0.742 | – | 0.763 | 0.763
328.15 K | – | – | 0.825 | – | – | 0.865 | 0.87 | 0.876 | 0.902 | –
333.15 K | 0.901 | 0.965 | 0.962 | 0.969 | 0.973 | 0.991 | – | 1.01 | 1.02 | 1.02
338.15 K | 1.04 | 1.1 | – | 1.12 | 1.12 | 1.13 | 1.13 | 1.16 | 1.17 | 1.17
343.15 K | 1.18 | – | – | 1.27 | 1.27 | 1.28 | 1.29 | 1.32 | – | 1.33

CCCC[n+]1ccn(C)c1C.F[B-](F)(F)F + FC(S(=O)(=O)[N-]S(=O)(=O)C(F)(F)F)(F)F.C(CCC)N1C(=[N+](C=C1)C)C
x2 = 0
Conditions | electrical conductivity [S/m]
318.15 K | 0.153
333.15 K | 0.335
343.15 K | 0.531
348.15 K | 0.63
353.15 K | 0.749
358.15 K | 0.867
363.15 K | 0.995

CC[N+](C)(CC)CCOC.O=S(=O)([N-]S(=O)(=O)C(F)(F)F)C(F)(F)F + FC(S(=O)(=O)[N-]S(=O)(=O)C(F)(F)F)(F)F.C(CCC)N1C(=[N+](C=C1)C)C
x1 = 1
Conditions | electrical conductivity [S/m]
293.15 K | 0.237
298.15 K | 0.311
303.15 K | 0.382
308.15 K | 0.476
313.15 K | 0.572
318.15 K | 0.683
323.15 K | 0.794
328.15 K | 0.922
333.15 K | 1.06
338.15 K | 1.2
343.15 K | 1.32
